{
  "source": "patent US9725457B2",
  "about": "“6-amido derivatives of 4, 5-a epoxymorphinans for the treatment of pain” (Sloan-Kettering Institute for Cancer Research, priority 2010, dated 2017)",
  "key": {"mice [1]": {"tested_on": "mice", "test": "Radiant heat tail flick analgesia assay", "type": "in vivo", "procedure": "Tail Flick Analgesia Assays: Male CD-i mice (25-35 g; Charles River Breeding Laboratories, Wilmington, Mass.) were maintained on a 12-hr light/dark cycle with Purina rodent chow and water available ad libitum. Mice were housed in groups of five until testing. Analgesia was determined using the radiant heat tail-flick technique [D'Amour and Smith, J. Pharmacol. Exp. Ther. 72: 74-79 (1941)]. For the tail-flick assay, the latency to withdraw the tail from a focused light stimulus was measured electronically using a photocell. […] Post-treatment tail-flick latencies were determined as indicated for each experiment, and a maximal latency of 10 sec for tail-flick was used to minimize tissue damage. All experiments were replicated at least twice with each group in each experiment containing at least 10 mice and the combined results of all replications presented."}, "mice [2]": {"tested_on": "mice", "test": "Respiratory depression assessment (MouseOx pulse oximeter)", "details": "2.5 mg/kg subcutaneously (five times the ED50), CD1 mice", "procedure": "Respiratory Depression assessment: The MouseOx Pulse Oximeter system (Starr Life Sciences, Pittsburgh, Pa.) was used to assess respiratory rate in awake, freely-moving, adult male CD1 mice. For 30 minutes, each animal was habituated to the device using a blank collar, after which the oximeter collar was placed on the animal. A five-second average breath rate was assessed at 5 minute intervals. A baseline for each animal was obtained over a 25 minute period prior to drug injection; beginning 15 minutes post-injection, measurements were then taken for a period of 35 minutes."}, "mice [3]": {"tested_on": "mice", "test": "Tolerance studies and effects of chronic administration (cross tolerance, precipitated withdrawal)", "procedure": "Tail-flick latencies were determined before and 30 minutes after each injection. See Gistrak et al. (1989) op. cit. […] Similarly, a group of mice (n=10) were made tolerant to test compound by twice daily injections to 1 mg/kg, s.c. for 10 days. […] Animals were evaluated for signs of diarrhea and jumping. See Gistrak et al. (1989) op. cit."}, "[4]": {"target": "T1, DOR (delta opioid receptor), DOR1-CHO (Mus musculus, UniProt P32300)", "T1 construct": "expressed in transfected cells; host or cells: CHO", "test": "Competition binding in DOR-CHO, 125I-SMGP1 radioligand", "procedure": "Receptor-Binding Assays: Competition-binding assays in MOR-CHO (mu), DOR-CHO (delta) and KOR-CHO (kappa) were performed at 25° C. in 50 mM potassium phosphate buffer, pH 7.4, containing 5 mM magnesium sulfate (only in the case of CHO-MOR). Specific binding was defined as the difference between total binding and nonspecific binding, determined in the presence of 8 μM levallorphan. […] Protein concentrations were generally 20-40 μg/mL, incubation times were 90 minutes for all assays. […] Specific binding was defined as the difference between total binding and nonspecific binding, determined in the presence of 8 μM levallorphan. […] Kd, Bmax, and Ki values were calculated by nonlinear regression analysis (GraphPadPrism)."}, "[5]": {"target": "T2, MOR (mu opioid receptor), MOR1-CHO (Mus musculus, UniProt P42866)", "T2 construct": "expressed in transfected cells; host or cells: CHO", "test": "Competition binding in MOR-CHO, 125I-SMGP1 radioligand", "procedure": "(§1) Receptor-Binding Assays: Competition-binding assays in MOR-CHO (mu), DOR-CHO (delta) and KOR-CHO (kappa) were performed at 25° C. in 50 mM potassium phosphate buffer, pH 7.4, containing 5 mM magnesium sulfate (only in the case of CHO-MOR). Specific binding was defined as the difference between total binding and nonspecific binding, determined in the presence of 8 μM levallorphan. 125I-SMGP1 (IBNtxA) was used as the universal radioligand to determine the relative affinity of drugs in MOR1-CHO, KOR1-CHO and DOR1-CHO. Protein concentrations were generally 20-40 μg/mL, incubation times were 90 minutes for all assays. (Majumdar et al., Bioorg Med Chem Lett. 2011, 21(13), 4001-4004). Kappa3 opioid receptor competition binding assays were carried out in whole brain membrane homogenates, performed at 25° C. in 50 mM potassium phosphate buffer, pH 7.4, containing 5 mM magnesium sulfate for 90 minutes in presence of 100 nM CTAP, 100 nM U50488h and 100 nM DPDPE. ^125I-SMGP1 was used as the radioligand in the assays, typically 500 micrograms of protein and 0.15 nM of the radioligand was used in a 0.5 mL assay. Specific binding was defined as the difference between total binding and nonspecific binding, determined in the presence of 8 μM levallorphan. Protein concentration was determined as described by Lowry et al. [J Biol Chem 1951, 193, 265-275; (1951)] using bovine serum albumin as the standard. Kd, Bmax, and Ki values were calculated by nonlinear regression analysis (GraphPadPrism). […] The “kappa3 opioid receptor” as referred to herein is the receptor first characterized by Clark et al. [J. Pharmacol. Exp. Ther. 251, 461-468 (1989)]."}, "kappa3 opioid receptor": {"target": "kappa3 opioid receptor (Mus musculus, UniProt P42866)", "test": "Kappa3 opioid receptor competition binding in whole brain membrane homogenates", "procedure": "as §1"}, "[6]": {"target": "T3, KOR (kappa opioid receptor), KOR1-CHO (Mus musculus, UniProt P33534)", "T3 construct": "expressed in transfected cells; host or cells: CHO", "test": "Competition binding in KOR-CHO, 125I-SMGP1 radioligand", "procedure": "as §1"}, "mice [7]": {"tested_on": "mice", "test": "Gastrointestinal motility (charcoal meal transit) assay", "type": "in vivo", "procedure": "Gastrointestinal motility assay: Gastrointestinal transit was determined as described by Paul and Pasternak [Eur. J. Pharmacol. 149 (1988), pp. 403-404.)]. In brief, after withholding food for 8 hours, animals received the indicated drug and then were given a charcoal meal (0.2 mL; 10% of purified charcoal and 2.5% of gum tragacanth, w/v) by gavage and were sacrificed 30 min later. The distance traveled by the charcoal meal was then measured and reported in centimeters."}},
  "data": [
    {"smiles": "O=C(NC1CCC2(O)C3Cc4ccc(O)c5c4C2(CCN3CC2CC2)C1O5)c1cccc(I)c1", "note": "(stereo not drawn) [SMGP 1]", "values": [
      {"measurement": "ED50", "setting": "mice [1]; Mus musculus, male CD-i mice, radiant heat tail-flick", "result": 0.53, "unit": "mg/kg"},
      {"measurement": "analgesic potency in mice relative to morphine", "setting": "mice [1]; mice", "result": "potency greater than morphine"},
      {"measurement": "respiratory depression as compared to saline", "setting": "mice [2]", "result": "no statistically significant depression"},
      {"measurement": "physical dependence (withdrawal on challenge with an antagonist after chronic administration)", "setting": "mice [3]; chronic administration, challenge with antagonist", "result": "no physical dependence"},
      {"measurement": "tolerance with chronic administration", "setting": "mice [3]; chronic administration, mice", "result": "some tolerance"},
      {"measurement": "analgesic response in highly morphine tolerant mice", "setting": "mice [3]; highly morphine tolerant mice", "result": "normal analgesic response"},
      {"measurement": "cross tolerance to morphine", "setting": "mice [3]; mice", "result": "no cross tolerance to morphine"},
      {"measurement": "Ki", "setting": "[4]", "result": 0.24, "unit": "nM"},
      {"measurement": "Ki", "setting": "[5]", "result": 0.11, "unit": "nM"},
      {"measurement": "affinity for the kappa3 site in words", "setting": "kappa3 opioid receptor", "result": "high affinity"},
      {"measurement": "Ki", "setting": "[6]", "result": 0.03, "unit": "nM"},
      {"measurement": "effect on the inhibition of gastrointestinal transit", "setting": "mice [7]", "result": "minimal"}
    ]}
  ]
}
